Experimental data taken from US9815851B2, “Pyrrolo carboxamides as modulators of orphan nuclear receptor RAR-related orphan receptor-gamma (RORγ, NR1F3) activity and for the treatment of chronic inflammatory and autoimmune diseases” (PHENEX PHARMACEUTICALS AG, priority 2011, dated 2017).
Read-outs that look alike come from different tables or passages of the source.

Tests used:
RORγ = target: T1, RORγ (UniProt P51449); assay: RORγ Gal4 Reporter Gene Assay in 293T cells (firefly and renilla luciferase); type: cell-based, human
T1 sequence (P51449 1-518): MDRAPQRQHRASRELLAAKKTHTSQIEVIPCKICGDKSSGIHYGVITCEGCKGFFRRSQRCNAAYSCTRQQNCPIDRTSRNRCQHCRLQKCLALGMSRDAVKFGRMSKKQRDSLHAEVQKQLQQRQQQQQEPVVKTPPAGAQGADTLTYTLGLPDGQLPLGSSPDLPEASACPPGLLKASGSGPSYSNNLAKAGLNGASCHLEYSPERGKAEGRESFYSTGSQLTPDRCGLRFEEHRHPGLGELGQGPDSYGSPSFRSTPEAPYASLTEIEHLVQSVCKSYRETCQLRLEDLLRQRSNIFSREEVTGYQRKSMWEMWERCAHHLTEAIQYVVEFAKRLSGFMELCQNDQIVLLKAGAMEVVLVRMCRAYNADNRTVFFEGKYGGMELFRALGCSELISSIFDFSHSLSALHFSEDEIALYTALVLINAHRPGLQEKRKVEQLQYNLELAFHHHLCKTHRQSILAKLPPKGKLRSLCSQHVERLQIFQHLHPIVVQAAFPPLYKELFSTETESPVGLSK

[1] = target: T2, RORγ ligand binding domain (LBD) (Homo sapiens, UniProt P51449); assay: TR-FRET Activity Assay (ligand sensing, RORγ-LBD / coactivator peptide interaction, LANCE); type: biochemical
T2 construct: made in house; host or cells: E. coli BL-21 (BL3), vector pDEST15
T2 sequence (P51449 269-508 limits assumed): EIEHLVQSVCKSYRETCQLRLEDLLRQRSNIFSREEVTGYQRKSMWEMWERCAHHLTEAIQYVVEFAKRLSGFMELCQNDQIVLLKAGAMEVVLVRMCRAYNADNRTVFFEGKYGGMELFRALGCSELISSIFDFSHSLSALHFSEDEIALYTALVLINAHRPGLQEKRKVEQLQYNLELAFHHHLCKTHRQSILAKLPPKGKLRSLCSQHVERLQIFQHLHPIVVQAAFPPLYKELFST

[2] = second value of the cell, Gal4 reporter gene assay in 293T cells, firefly luciferase
[3] = third value of the cell, Gal4 reporter gene assay in 293T cells, renilla normalised luciferase
[4] = first value of the cell FRET/FF/REN, TR-FRET activity assay, read-out: pIC50 (FRET) (converted)

Structure (SMILES)	pIC50 (FF) (RORγ)	pIC50 (REN) (RORγ)	IC50 [1]	pIC50 (FF) (RORγ; [2])	pIC50 (REN) (RORγ; [3])	IC50 [1, 4]
Cc1c(C(=O)NC2CCOCC2)cc(-c2ccc(S(=O)(=O)NC(C)(C)CF)c(C(F)(F)F)c2)n1CC1CCCCC1 [18/5]	6.2/7.5/7.5	6.2/7.5/7.5	631 nM	–	–	–
Cc1c(C(=O)NCC(C)(C)CC(=O)O)cc(-c2ccc(S(=O)(=O)NC(C)(C)C)c(C(F)(F)F)c2)n1CC1CCCCC1 [17/134]	–	–	–	7.4	7.7	398 nM
Cc1c(C(=O)NC2COC2)cc(-c2cc(C(C)(C)C)cc(C(C)(C)C)c2)n1CC1Cc2ccccc2C1 [1/118]	–	–	–	6.5	6.6	631 nM
CC(C)(CCNC(=O)c1cc(-c2cc(C(C)(C)C)cc(C3(C)CC3)c2)n(CC2CCCCC2)c1F)C(=O)O [20/5]	–	–	–	7.0	7.0	794 nM
Cc1c(C(=O)N[C@H]2C[C@H](C(=O)O)C2)cc(-c2ccc(S(=O)(=O)NC(C)(C)C)c3c2OCCO3)n1CC1CCCCC1 [17/279]	–	–	–	< 4.7	< 4.7	3160 nM
Cc1c(C(=O)NC2CC2)cc(-c2ccc(S(=O)(=O)NC(C)(C)C)c(C(C)(C)C)c2)n1CC1CCCCC1 [17/99]	–	–	–	6.9	7.0	251 nM
Cc1c(C(=O)NCC2(O)CCOCC2)cc(-c2ccc(S(=O)(=O)NC(C)(C)C)c3ccccc23)n1CC1CCCCC1 [17/239]	–	–	–	7.9	8.1	1000 nM
Cc1c(C(=O)NC2CCOCC2)cc(-c2ccc(S(=O)(=O)NC(C)(C)CC(F)(F)F)c(C(F)(F)F)c2)n1CC1CCCCC1 [17/143]	–	–	–	8.2	8.2	126 nM
Cc1c(C(=O)N2CC3(CCS(=O)(=O)CC3)C2)cc(-c2ccc(S(=O)(=O)NC(C)(C)C)c3ccccc23)n1CC1CCCCC1 [17/270]	–	–	–	7.8	8.0	631 nM
Cc1c(C(=O)N[C@H]2C[C@H](C(=O)O)C2)cc(-c2ccc(S(=O)(=O)NC(C)(C)C)c(C(C)(C)C)c2)n1CC1CCCCC1 [17/221]	–	–	–	7.1	7.1	2000 nM
Cc1c(C(=O)N[C@H]2C[C@H](C(=O)O)C2)cc(-c2ccc(-c3ccnn3C(C)C)c(C(C)(C)C)c2)n1CC1CCCCC1 [26/5]	–	–	–	7.9	8.0	316 nM
Cc1c(C(=O)NC2CCS(=O)(=O)CC2)cc(-c2ccc(S(=O)(=O)NC(C)(C)C)c(C(C)(C)C)c2)n1CC1CCCCC1 [17/92]	6.0/7.3/7.1	6.0/7.3/7.1	1000 nM	–	–	–
Cc1c(C(=O)N[C@H]2C[C@H](C(=O)O)C2)cc(-c2ccc(S(=O)(=O)NC(C)(C)C)c3c2CCCC3)n1CC1CCCCC1 [17/281]	–	–	–	7.7	7.7	1000 nM
Cc1c(C(=O)NC2COC2)cc(-c2cc(C(C)(C)C)c3c(c2)C2(CCO3)CC2)n1CC1CCCCC1 [1/38]	–	–	–	7.2	7.3	251 nM
Cc1c(C(=O)NC2CCOCC2)cc(-c2ccc(S(=O)(=O)N3CCCCC3(C)C)c(C(F)(F)F)c2)n1CC1CCCCC1 [17/69]	–	–	–	7.2	7.4	> 20000 nM
Cc1c(C(=O)NCC2(O)CCOCC2)cc(-c2cc(C(C)(C)O)cc(C3(C)CC3)c2)n1CC1CCCCC1 [17/314]	–	–	–	7.2	7.1	1000 nM
Cc1c(C(=O)NC2CCOCC2)cc(-c2ccc(S(=O)(=O)NC(C)(C)C)c(C(F)(F)F)c2)n1C1CC12CCCC2 (centres unmarked) [17/175]	–	–	–	6.6	6.7	794 nM
COC(C)(C)c1cc(-c2cc(C(=O)NC3CCOCC3)c(C)n2CC2CCCCC2)cc(C2(C)CC2)c1 [1/44]	6.3/7.4/7.3	6.3/7.4/7.3	501 nM	–	–	–
Cc1c(C(=O)NC2COC2)cc(-c2cc(C(C)(C)C)cc(C(C)(C)C)c2)n1S(=O)(=O)N1CCC(C)CC1 [7/1]	–	–	–	6.7	6.8	316 nM
Cc1c(C(=O)NC2(C)COC2)cc(-c2cc(C(C)(C)C)c3c(c2)C2(CCO3)CC2)n1CC1CCCCC1 [17/13]	6.2/6.8/6.9	6.2/6.8/6.9	631 nM	–	–	–
Cc1c(C(=O)N2CCS(=O)(=O)CC2)cc(-c2ccc(S(=O)(=O)NC(C)(C)C)c(C(F)(F)F)c2)n1CC1CCCCC1 [17/199]	–	–	–	6.6	6.7	631 nM
Cc1c(C(=O)NC2COC2)cc(C2=NN(C(=O)C3CCCCC3)C3(CCCCC3)C2)n1CC1CCCCC1 [24/2]	–	–	–	< 4.7	< 4.7	6310 nM

Structure (SMILES)	pIC50 (FF) (RORγ)	pIC50 (REN) (RORγ)	IC50 [1]	pIC50 (FF) (RORγ; [2])	pIC50 (REN) (RORγ; [3])	IC50 [1, 4]
Cc1c(C(=O)NC2CCOCC2)cc(-c2ccc(C(=O)NC(C)(C)C)c(C(F)(F)F)c2)n1CC1CCCCC1 [6/8]	5.0/6.8/7.3	5.0/6.8/7.3	10000 nM	–	–	–
Cc1cc(-c2cc(C(=O)NC3CCOCC3)c(C)n2CC2CCCCC2)cc(C(F)(F)F)c1S(=O)(=O)NC(C)(C)C [17/232]	6.1/6.8/7.0	6.1/6.8/7.0	794 nM	–	–	–
Cc1c(C(=O)NC2COC2)cc(-c2cc(C(C)(C)C)cc(C(C)(C)C)c2)n1S(=O)(=O)N1CCCCCC1 [7/4]	–	–	–	7.1	7.1	200 nM
Cc1c(C(=O)NCC(C)(C)O)cc(-c2ccc(S(=O)(=O)NC(C)(C)C)c3ccccc23)n1CC1CCCC(F)C1 (centres unmarked) [17/370]	–	–	–	7.2	7.3	2000 nM
Cc1c(C(=O)NC2COC2)cc(-c2cc(C(C)(C)C)cc(C(C)(C)C)c2)n1CCC1CCCC1 [1/116]	–	–	–	6.9/6.9/6.9	6.9/6.9/6.9	126 nM
Cc1c(C(=O)N[C@H]2C[C@H](C(=O)O)C2)cc(-c2cc(C(F)(F)F)cc(C3(C)CC3)c2)n1CC1CCCCC1 [17/300]	–	–	–	7.3	7.6	794 nM
Cc1c(C(=O)NCCc2nnn[nH]2)cc(-c2cc(C(C)(C)C)cc(C3(C)CC3)c2)n1CC1CCCCC1 [17/70]	–	–	–	7.9	7.9	1260 nM
Cc1c(C(=O)NCC(C)(C)C(=O)O)cc(-c2ccc(S(=O)(=O)NC(C)(C)C)c(C(F)(F)F)c2)n1CC1CCCCC1 [17/200]	–	–	–	6.9	6.9	501 nM
CNC(=O)C(C)(C)CNC(=O)c1cc(-c2cc(C(C)(C)C)c3c(c2)C2(CCO3)CC2)n(CC2CCCCC2)c1C [Example 11/1]	–	–	–	7.3	7.3	251 nM
Cc1c(C(=O)NCC(C)(C)C(N)=O)cc(-c2cc(C(C)(C)C)c3c(c2)C2(CCO3)CC2)n1CC1CCCCC1 [1/98]	–	–	–	7.3	7.3	631 nM
Cc1c(C(=O)N[C@H]2C[C@H](C(=O)O)C2)cc(-c2cc(C(C)(C)C)nc(C(C)(C)C)c2)n1CC1CCCCC1 [17/262]	6.2/7.6/7.8	6.2/7.6/7.8	631 nM	–	–	–
Cc1c(C(=O)NCCCCCS(N)(=O)=O)cc(-c2cc(C(C)(C)C)c3c(c2)C2(CCO3)CC2)n1CC1CCCCC1 [17/114]	–	–	–	6.5	6.4	631 nM
Cc1c(C(=O)N[C@H]2C[C@](C)(C(=O)O)C2)cc(-c2cc(C(C)(C)C)cc(C3(C)CC3)c2)n1CC1CCCCC1 [17/171]	–	–	794 nM	–	–	–
Cc1c(C(=O)NCCCNS(C)(=O)=O)cc(-c2cc(C(C)(C)C)c3c(c2)C2(CCO3)CC2)n1CC1CCCCC1 [17/3]	–	–	398 nM	–	–	–
COC(C)(C)c1cc(-c2cc(C(=O)NC3COC3)c(C)n2CC2CCCCC2)cc(C(C)(C)C)c1 [1/107]	–	–	794 nM	–	–	–
Cc1c(C(=O)NCC(C)(C)O)cc(-c2cc(C(=O)N(C)C(C)(C)C)cc(C(C)(C)C)c2)n1CC1CCCCC1 [15/7]	–	–	1260 nM	–	–	–
COCOc1ccc(-c2cc(C(=O)NC3COC3)c(C)n2CC2CCCCC2)cc1C(C)(C)C [1/24]	–	–	631 nM	–	–	–
Cc1c(C(=O)N2CCS(=O)(=O)CC2)cc(-c2ccc(S(=O)(=O)NC(C)(C)C)c(C(C)(C)C)c2)n1CC1CCCCC1 [17/100]	–	–	794 nM	–	–	–
Cc1c(C(=O)NCC2CNCCO2)cc(-c2cc(C(C)(C)C)c3c(c2)C2(CCO3)CC2)n1CC1CCCCC1.Cl (centres unmarked) [17/7]	5.5/<4.7/<4.7	5.5/<4.7/<4.7	–	–	–	–
Cc1c(C(=O)NCC(C)(C)N)cc(-c2cc(C(C)(C)C)c3c(c2)C2(CCO3)CC2)n1CC1CCCCC1.Cl [17/27]	5.6/6.3/6.5	5.6/6.3/6.5	–	–	–	–
Cc1c(C(=O)NC2(C(=O)O)CC2)cc(-c2cc(C(C)(C)C)c3c(c2)C2(CCO3)CC2)n1CC1CCCCC1 [17/50]	–	–	3160 nM	–	–	–
